Experimental findings from PubChem BioAssay (NCI) are described below.

Where “and” joins values, the source holds several entries; their conditions need not be identical. Equal values may be shown once.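 Results reflect a 48-hour exposure of cells in 96-well plates to compound at five concentrations. The concentration for 50% growth inhibition is given as GI50. TGI is the concentration that stops growth completely.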

Assay in all cases: NCI tumour cell line growth inhibition, 48 h
Assay [1] concerns UO-31 renal.
For assay [2], the system named is HCT-15 colon.
For assay [3], the system named is DMS 273 small cell lung.
For assay [4], the system named is TK-10 renal.
For assay [5], the system named is CCRF-CEM leukemia.
Assay [6] concerns KM20L2 colon.
Assay [7] has as its system SF-268 CNS.
Assay [8] has as its system SK-OV-3 ovarian.
Assay [9] relates to SNB-75 CNS.
In assay [10] the test system is SR leukemia.

Regarding `C[N+](C)(C)C1CC([N+](C)(C)C)C2c3ccccc3C21` (stereo not drawn), the TGI in assay [1], in assay [2], in [3], in assay [4], in assay [5] and in [6] was above 100 µM each time. In addition, the TGI in assay [7], in assay [8] and in assay [9] was above 100 µM throughout.
For `Cc1[nH]c2ccccc2c1C1=NO/C(=N\O)C(c2c(C)[nH]c3ccccc23)C1` (stereo not drawn), the TGI in assay [1] was above 80.5 µM; in assay [2] it was above 100 µM; in assay [3], above 100 µM; in assay [4] it was above 100 µM; in [5], above 100 µM; in assay [6], 50.5 µM. For the same compound, the TGI in assay [7] is above 100 µM; in [8], above 100 µM; in assay [10], above 78.7 µM; in [9], above 100 µM.
Consider `CN=C1CN=C(OP(=O)(N2CCOCC2)N2CCOCC2)c2cc(Cl)ccc2N1`, for which the TGI in assay [1], in assay [2], in assay [3], in assay [4], in assay [5] and in assay [6] was above 100 µM each time. Besides, the TGI in assay [10] and in assay [9] was above 100 µM each time.
Turning to `Brc1ccc(C=NC23CC4CC(CC(C4)C2)C3)cc1`, the TGI in assay [1], in [2], in assay [3], in [4], in assay [5] and in assay [6] was above 100 µM throughout. Besides, the TGI in [7], in [8] and in assay [9] was above 100 µM throughout.
Turning to `CC(=O)OC1=C2CC[C@@H]3C(CC[C@@]4(C)C3CC[C@@H]4OC(C)=O)[C@@]2(C)CC(C#N)C1=O` (stereo partly drawn), the TGI in assay [1] was above 100 µM; in assay [2] it was above 100 µM; in assay [3], 74 µM; in assay [4], above 100 µM; in assay [5], 53.1 µM; in assay [6] it was above 100 µM. For the same compound, the results for the TGI in assay [7], in assay [8] and in [9] were above 100 µM, 48.1 µM and 72.9 µM, respectively.
Turning to `CCC[CH2][Sn]1([CH2]CCC)[O]CC[S]1`, the GI50 in assay [1] was 1.28 µM; in assay [2] it was 0.799 µM; in [3] it was 1.13 µM; in [4], 0.508 µM; in assay [5] it was 0.177 µM; in [6] it was 1.41 µM. For the same compound, the GI50 in assay [7] is 0.363 µM; in [8] it was 1.61 µM; in assay [9], 0.61 µM. Further, the TGI in assay [1] worked out at 2.54 µM; in assay [2] it was 2.25 µM; in [3], 3.56 µM; in assay [4] it was 1.39 µM; in assay [5], 0.814 µM; in [6] it was 2.75 µM. Moreover, the TGI in assay [7] was determined as 1.44 µM; in assay [8], 2.96 µM; in [9], 1.92 µM.
As to `C/C(=C\C(C[C@](C)(O)C(O)CCC#C[Si](C)(C)C)S(=O)(=O)c1ccccc1)CC/C=C/CO[Si](C)(C)C(C)(C)C` (stereo partly drawn), the TGI in assay [1] amounted to 36.4 µM; in assay [2], 34.4 µM; in assay [3], 30.6 µM; in assay [4] it was 37.7 µM; in assay [5], 28.9 µM; in assay [6], 24 µM. The compound further came in with a TGI in [8] of 40.3 µM.
For `[Co].[O-]c1cccnc1C=Nc1ccccc1.[OH3+]`, the GI50 in [1] is 56.2 µM; in assay [2], 50.4 µM; in assay [3], above 100 µM; in assay [4], above 100 µM; in assay [5] it was above 100 µM; in assay [6], above 100 µM. The GI50 in assay [7] is 99.3 µM; in assay [8], above 100 µM; in assay [9], 49.7 µM. In addition, the TGI in assay [1], in assay [2], in assay [3], in assay [4], in assay [5] and in assay [6] was above 100 µM throughout. Further, the TGI in assay [7], in assay [8] and in assay [9] was above 100 µM throughout.
As for `CC[O-].CC[O-].O=C([CH-]C(=O)c1ccccc1)CCCCCCC(=O)[CH-]C(=O)c1ccccc1.[Ti+4]`, the GI50 in assay [1], in [2], in [3], in assay [4], in [5] and in [6] was above 100 µM each time. In addition, the GI50 in assay [7], in assay [8] and in assay [9] was above 100 µM throughout. The TGI in assay [1], in assay [2], in assay [3], in assay [4], in assay [5] and in assay [6] was above 100 µM throughout. The TGI in [7], in assay [8] and in assay [9] was above 100 µM in each case.
As for `COc1ccccc1NC(=O)C1=C(C)NC(C)=C(C(=O)Nc2ccccc2OC)C1c1ccccc1Cl`, the TGI in assay [1], in assay [2], in assay [3], in assay [4], in assay [5] and in [6] was above 100 µM each time. For the same compound, the TGI in [7], in [8], in [10] and in assay [9] was above 100 µM each time.
As for `O=C1NC2(CCCC2)C2CCCCC12O` (stereo not drawn), the TGI in [1], in assay [2], in assay [3], in [4], in assay [5] and in assay [7] was above 100 µM each time. For the same compound, the TGI in assay [8], in [10] and in assay [9] was above 100 µM in each case.
Regarding `C1C[OH+]CCNCC[OH+]CC[OH+]CCN1.N.[Cl-].[Pt+4]`, the GI50 in assay [1] was 20.5 µM; in [2], 40.4 µM; in assay [3] it was 28.7 µM; in assay [4], 49.5 µM; in assay [5], 53.6 µM; in [6], 22.8 µM. Further, the GI50 in assay [7] was above 100 µM; in assay [8], 25.1 µM; in assay [9], 24.2 µM. In addition, the TGI is 80 µM in assay [1]; above 100 µM in assay [2]; above 100 µM in assay [3]; above 100 µM in assay [4]; above 100 µM in assay [5]; above 100 µM in [6]. Moreover, the TGI in assay [7] was above 100 µM; in [8] it was 96 µM; in assay [9], above 100 µM.
Regarding `CO/C=C(\Br)c1ccc2c(c1)OCO2`, the TGI in [1], in assay [3], in assay [4], in assay [5], in assay [7] and in [8] was above 100 µM each time. The TGI in assay [10] and in assay [9] was above 100 µM each time.
Turning to `C[C@]12CCc3nonc3C1CC[C@@H]1C2CC[C@@]2(C)C1CC[C@@H]2O` (stereo partly drawn), the TGI in [1], in assay [2], in [3], in assay [4], in [5] and in [6] was above 100 µM in each case. Besides, the TGI in assay [7], in [8] and in assay [9] was above 100 µM throughout.
As for `CCCCCCCC(=O)OCC1OC(n2cc(F)c(=O)[nH]c2=O)C(N)C(O)C1O` (stereo not drawn), the TGI in [1], in assay [2], in [3], in [5], in assay [6] and in assay [7] was above 100 µM throughout. Also, the TGI in [8], in [10] and in assay [9] was above 100 µM in each case.
As for `CC(=O)[CH-]C(C)=O.CC(=O)[CH-]C(C)=O.[Cl-].[O]=[V]`, the GI50 in assay [1] is 63.3 µM; in [2], 36.8 µM; in [3], 20.9 µM; in assay [4], 24.5 µM; in [10], above 100 µM; in assay [9] it was 8.51 µM. The TGI in assay [1] is above 100 µM; in [2] it was above 100 µM; in assay [3], 39.7 µM; in assay [4], 60.6 µM; in assay [10], above 100 µM; in assay [9], 25.2 µM.
On to `CCOC(=O)CNC(=O)OCc1ccccc1`, for which the TGI in assay [1], in assay [2], in assay [3], in [4], in assay [5] and in assay [7] was above 100 µM throughout. Further, the TGI in assay [8] and in [9] was above 100 µM in each case.
With `COc1cc(/C=C2\NC(=O)C3Cc4c(OC)c(C)c(OC)c(OC)c4C2N3C)c(OC)c(C)c1OC` (stereo not drawn), the TGI in assay [1], in [3], in assay [4], in assay [5], in [6] and in [7] was above 100 µM in each case. In addition, the TGI in assay [8], in assay [10] and in assay [9] was above 100 µM throughout.
`N#CC(C(=O)CCC(=O)Nc1cccc(C(F)(F)F)c1)c1ccccc1` (stereo not drawn): the TGI in assay [1], in [2], in assay [3], in assay [4], in assay [5] and in assay [6] was above 100 µM each time. Besides, the TGI in assay [7] and in assay [9] was above 100 µM each time.
In the case of `CCOC(=O)Nc1ccc2c(c1)C(=O)N(CC)c1ccccc1O2`, the GI50 in [1] was 0.379 µM; in [2] it was 0.0746 µM; in [4] it was above 100 µM; in assay [5], 0.0889 µM; in assay [7] it was 0.26 µM; in [8] it was 0.157 µM. The GI50 in assay [10] is 0.0479 µM; in assay [9], 0.188 µM. Besides, the TGI in [1], in assay [2], in [4], in [5], in assay [7] and in assay [8] was above 100 µM in each case. For the same compound, the TGI in assay [9] is above 100 µM.
For `O=C(Nc1cn[nH]c1-c1nc2ccc(CN3CCOCC3)cc2[nH]1)NC1CC1`, the GI50 in assay [1] is 0.851 µM and 2.33 µM; in assay [2], 4.52 µM and > 10 µM; in assay [4], 1.24 µM and 5.07 µM; in [5] it was 1.42 µM; in [7], 0.344 µM and 1.84 µM; in [8], 0.375 µM and 0.299 µM. The GI50 in assay [10] is 0.0277 µM and 0.0539 µM; in assay [9] it was 0.0327 µM and 0.214 µM. Also, the TGI is above 24.6 µM in assay [1]; 25.6 µM and > 10 µM in [2]; 6 µM and > 10 µM in assay [4]; 8.69 µM in assay [5]; 2.44 µM and > 10 µM in assay [7]; 3.52 µM and 8.08 µM in assay [8]. Also, the TGI in assay [10] is 4.15 µM and 5.52 µM; in assay [9], 0.367 µM and 1.62 µM.
`O=C(c1ccc2ccccc2c1)c1c(C(F)(F)F)n([O-])c2cc(C(F)(F)F)ccc2[n+]1=O`: the GI50 in assay [1] was 1.36 µM; in assay [2], 1.69 µM; in [4], 1.68 µM; in assay [7] it was 1.56 µM; in assay [8] it was 1.79 µM; in assay [10], 0.86 µM. For the same compound, the GI50 in assay [9] is 1.73 µM. The TGI in [1] was 2.7 µM; in assay [2], 3.4 µM; in assay [4], 3.06 µM; in [5], 0.385 µM; in assay [7], 3.05 µM; in [8] it was 3.23 µM. For the same compound, the TGI in assay [10] stood at 2.64 µM; in [9], 3.13 µM.
`CCc1cccc(NC(=O)Nc2ccc(Oc3ccc4nc(NC(=O)OC)[nH]c4c3)cc2)c1`: the GI50 is above 25 µM in [1]; 2.93 µM in [2]; 6.61 µM in assay [4]; 6.2 µM in assay [5]; 4.33 µM in assay [7]; 4.99 µM in assay [8]. The values for the GI50 in assay [10] and in assay [9] were 0.149 µM and 2.53 µM, respectively. Further, the TGI in [1] is above 25 µM; in assay [2], above 25 µM; in [4] it was above 19.8 µM; in assay [5] it was above 25 µM; in assay [7], 15.9 µM; in assay [8] it was 11.5 µM. Also, the TGI in [10] was above 25 µM; in [9], above 14.1 µM.
